Laboratory results published in patent publication US8034780B2, “Isolation, purification, and structure elucidation of the antiproliferative compound coibamide A” (priority 2007, dated 2011).
Where “and” joins values, the source holds several entries; their conditions need not be identical. Equal entries are not always repeated. Bridge positions count the residues as written; N and C are the ends. Square brackets hold non-standard residues; d marks the D form. Peptide text beside a SMILES is read from it. * marks the point of attachment. ξ: configuration not given here. NMeI = CC[CH](C)[CH](NC)C(=O)O; ξNMe2Val = CC(C)C(C(=O)*)N(C)C; NMeT = CN[CH](C(=O)O)[CH](C)O; NMeL = CN[CH](CC(C)C)C(=O)O; Hiv = CC(C)[CH](O)C(=O)O; NMeS = CN[CH](CO)C(=O)O; NMeA = CN[CH](C)C(=O)O

Tests used:
[1] = test system: NCI-H460 human lung tumor cells; test: MTT cytotoxicity, NCI-H460 cells; format: cell-based; settings: 48 hours, read-out: LC50 (the source's name)
Protocol: (§1) Cytotoxicity was measured in NCI-H460 human lung tumor cells and neuro-2a mouse neuroblastoma cells using the method of Alley et. al. (Cancer Res. (1988) 48:589-601) with cell viability being determined by 3-(4,5-dimethylthiazol-2-yl)-2,5-diphenyltetrazolium bromide (MTT) reduction (Manger et al. (1995) J. AOAC Int., 78:521-527). Cells were seeded in 96-well plates at 6000 cells/well in 180 μL of RPMI 1640 medium with 10% fetal bovine serum. Twenty-four hours later, the test chemical was dissolved in DMSO, diluted into medium without fetal bovine serum and added at 20 μL/well. DMSO was less than 0.5% of the final concentration. After 48 hours, the medium was removed and cell viability determined.

[2] = test system: neuro-2a mouse neuroblastoma cells; test: MTT cytotoxicity, neuro-2a cells; format: cell-based; settings: mouse/rat NG108-15, N2a, 48 hours, read-out: LC50 (the source's name)
Protocol: as §1

A-10 cells = test: cytoskeletal immunofluorescence study in A-10 cells; format: cell-based
Protocol: (§2) Cytoskeletal assays were carried out on 1. […] Therefore, it was hypothesized that 1 might cause mitotic abnormalities by a non-tubulin dependent mechanism, and flow cytometry studies were initiated to look at the effect of the compound on cell cycle distribution (FIG. 2).

[3] = test system: HeLa cervical cancer cells; test: immunofluorescence study in HeLa cells; format: cell-based
Protocol: as §2

MDA-MB-435 cells = test: cell cycle analysis by flow cytometry; format: cell-based; settings: 24 hours
Protocol: For cell cycle analysis, MDA-MB-435 cells were treated for 24 hours with vehicle or sample. The cells were harvested and stained with Krishan's reagent. This suspension was analyzed using a Becton Dickinson FACScan flow cytometer, and the data were plotted as propidium iodide intensity versus the number of events. Quality control samples were run with each assay to ensure instrument linearity and resolution.

[4] = test system: histone deacetylase (HDAC); test: HDAC inhibition; format: biochemical
[5] = test system: National Cancer Institute NCI60 tumor cell lines; test: NCI60 tumor cell line panel; format: cell-based, human
Protocol: (§3) Coibamide A was tested against the National Cancer Institute NCI60 tumor cell lines (dtp.nci.nih.gov/branches/btb/ivclsp.html; Shoemaker, R. H. (2006) Nat. Rev. Cancer, 6:813-823), which comprises 60 human cancer cell lines including leukemias, melanomas, ovarian, renal, prostate, breast, colon, lung and central nervous system (CNS) cancers (the data from two screens are provided in FIGS. 3A and 3B). […] Growth inhibition of 50% (GI50) is the drug concentration resulting in a 50% reduction in the net protein increase in control cells during the drug incubation. Similarly, total growth inhibition (TGI) is the drug concentration resulting in zero net protein increase in control cells, and the lethal concentration of 50% (LC50) is the drug concentration resulting in a 50% reduction in the measured protein at the end of the drug treatment as compared to that at the beginning, (a net loss of cells following treatment). […] Coibamide A produced mean cytostatic (GI50 and TGI with range) and cytotoxic (LC50 and range) parameters as follows: log GI50, −8.04 (2.96); log TGI, −5.85 (3.43); log LC50, −5.11 (2.66). These log mean values of <−4 with log range values of >2 indicate both potency and histological selectivity (FIG. 4).

SR (leukemia) = test: NCI60 screen, SR; format: cell-based, human
Protocol: as §3

HOP-92 (NSCLC) = test: NCI60 screen, HOP-92; format: cell-based, human
Protocol: as §3

COLO 205 (colon cancer) = test: NCI60 screen, COLO 205; format: cell-based, human
Protocol: as §3

HCC-2998 (colon cancer) = test: NCI60 screen, HCC-2998; format: cell-based, human
Protocol: as §3

HT29 (colon cancer) = test: NCI60 screen, HT29; format: cell-based, human
Protocol: as §3

SF-295 (CNS cancer) = test: NCI60 screen, SF-295; format: cell-based, human; settings: first screen
Protocol: as §3

SF-539 (CNS cancer) = test: NCI60 screen, SF-539; format: cell-based, human
Protocol: as §3

LOX IMVI (melanoma) = test: NCI60 screen, LOX IMVI; format: cell-based, human
Protocol: as §3

SK-MEL-5 (melanoma) = test: NCI60 screen, SK-MEL-5; format: cell-based, human
Protocol: as §3

SK-OV-3 (ovarian cancer) = test: NCI60 screen, SK-OV-3; format: cell-based, human; settings: first screen
Protocol: as §3

[6] = test system: MDA-MB-231/ATCC (breast cancer); test: NCI60 screen, MDA-MB-231/ATCC; format: cell-based, human
Protocol: as §3

T-47D (breast cancer) = test: NCI60 screen, T-47D; format: cell-based, human
Protocol: as §3

HL60(TB) (leukemia) = test: NCI60 screen, HL60(TB); format: cell-based, human; settings: second screen
SNB-75 (CNS cancer) = test: NCI60 screen, SNB-75; format: cell-based, human; settings: second screen
Protocol: as §3

M-14 (melanoma) = test: NCI60 screen, M-14; format: cell-based, human; settings: second screen
Protocol: as §3

UACC-62 = test: NCI60 screen, UACC-62; format: cell-based, human; settings: second screen
Protocol: as §3

A498 (renal cancer) = test: NCI60 screen, A498; format: cell-based, human; settings: second screen
Protocol: as §3

RXF 393 (renal cancer) = test: NCI60 screen, RXF 393; format: cell-based, human; settings: second screen
Protocol: as §3

[7] = test system: MDA-MB-435 (breast cancer); test: NCI60 screen, MDA-MB-435; format: cell-based, human; settings: second screen
Protocol: as §3

[8] = mean over the panel, log range in brackets, preliminary

SMILES: CCC(C)C1C(=O)NC(C)C(=O)N(C)C(CC(C)C)C(=O)NC(Cc2ccc(OC)cc2)C(=O)N(C)C(C)C(=O)OC(C)C(N(C)C(=O)C(CC(C)C)N(C)C(=O)C(COC)N(C)C(=O)C(OC(=O)C(C(C)C)N(C)C)C(C)C)C(=O)N(C)C(COC)C(=O)N1C (centres unmarked) [Coibamide A] (ξNMe2Val-[Hiv][NMeS](Me)[NMeL][NMeT][NMeS](Me)[NMeI]A[NMeL]Y(Me)[NMeA]; ester 4-C; configuration not given here)
- CC50 [1]: > 0.03 µg/mL and > 23 nM
- CC50 [2]: > 0.03 µg/mL and > 23 nM
- microtubule changes (A-10 cells): did not show any of the expected microtubule changes
- mitotic spindles (A-10 cells): some monopolar mitotic spindles were observed
- mitotic structures ([3]; 100 nM concentration): two aberrant mitotic structures were observed
- phenotypic effects on microtubules or nuclear structures ([3]; immunofluorescence): did not show any expected phenotypic effects on microtubules or on nuclear structures
- cells in G2/M (MDA-MB-435 cells): no change in G2/M
- mitotic accumulation (MDA-MB-435 cells): does not cause any significant mitotic accumulation
- cells in G1 phase (MDA-MB-435 cells; dose dependent): large increase in the number of cells in G1 phase
- cells in S phase (MDA-MB-435 cells; dose dependent): reduction of cells in S phase
- HDAC inhibitor activity [4]: no significant activity
- activity by cancer type from the mean graph for GI50 values [5]: consistently active against leukemias, CNS, colon, and breast cancer cells
- GI50 values ([5]; 53 of the 55 cancer cell lines screened): Nanomolar or better
- CC50 ([5]; Homo sapiens, mean over the panel, log range in brackets, preliminary, read-out: mean log LC50 (range) (converted)): 7760 nM
- mean log GI50 (range) [5, 8]: −8.04 (2.96)
- mean log TGI (range) [5, 8]: −5.85 (3.43)
- TGI (SR (leukemia); first screen): 16.6 nM
- TGI (SR (leukemia); second screen): 87.0 nM
- TGI (HOP-92 (NSCLC); first screen): 25.4 nM
- TGI (HOP-92 (NSCLC); second screen): 11.4 nM
- CC50 (COLO 205 (colon cancer); Homo sapiens, COLO 205, NCI60 screen, read-out: LC50 (the source's name)): 35.8 nM
- TGI (COLO 205 (colon cancer); first screen): 4.9 nM
- TGI (COLO 205 (colon cancer); second screen): 15.7 nM
- GI50 (HCC-2998 (colon cancer); Homo sapiens, HCC 2998, undefined activity): < 1 nM
- TGI (HCC-2998 (colon cancer); first screen): 8.3 nM
- TGI (HCC-2998 (colon cancer); second screen): 93.7 nM
- LC50 (concentration giving 50% net cell loss) (HT29 (colon cancer); Homo sapiens, HT-29, NCI60 screen): 93.3 nM
- GI50 (HT29 (colon cancer); Homo sapiens, HT-29, undefined activity): < 1 nM
- TGI (HT29 (colon cancer); first screen): 10.4 nM
- TGI (HT29 (colon cancer); second screen): 14.6 nM
- TGI (SF-295 (CNS cancer)): 21.9 nM
- TGI (SF-539 (CNS cancer); first screen): 30.3 nM
- TGI (SF-539 (CNS cancer); second screen): 28.7 nM
- TGI (LOX IMVI (melanoma); first screen): 6.6 nM
- TGI (LOX IMVI (melanoma); second screen): 7.4 nM
- GI50 (SK-MEL-5 (melanoma); Homo sapiens, SK-MEL-5, undefined activity): < 1 nM
- TGI (SK-MEL-5 (melanoma); first screen): 6.0 nM
- TGI (SK-MEL-5 (melanoma); second screen): 26.9 nM
- TGI (SK-OV-3 (ovarian cancer)): 9.8 nM
- TGI ([6]; first screen): 25.1 nM
- TGI ([6]; second screen): 2.8 nM
- GI50 (T-47D (breast cancer); Homo sapiens, T47D, undefined activity): < 1 nM
- TGI (T-47D (breast cancer); first screen): 5.4 nM
- TGI (HL60(TB) (leukemia)): 7.4 nM
- TGI (SNB-75 (CNS cancer)): 7.6 nM
- TGI (M-14 (melanoma)): 11.2 nM
- TGI (UACC-62): 80.6 nM
- TGI (A498 (renal cancer)): 74.4 nM
- TGI (RXF 393 (renal cancer)): 82.3 nM
- TGI [7]: 100 nM
